Measured values from article doi:10.1101/2021.09.28.462264v1 (biorxiv, 2021).
Like-named read-outs stand apart in the source and are kept apart here.

Columns and labels:
Conditions in all cases: 10 mM MgCl2, 100 mM Tris pH 8.0, 25 °C
PcIBMS1 [1] = tested on: PcIBMS1
PcIBMS1 [2] = assay: DTNB end-point spectrophotometric assay; format: biochemical, Pogostemon cablin
PcIPMS1 [3] = tested on: PcIPMS1
PcIPMS1 [4] = assay: DTNB end-point spectrophotometric assay; format: biochemical, Pogostemon cablin

Question: With `CC(C)C(=O)C(=O)O` [2-oxoisovalerate] as the molecule, how does the Km (PcIBMS1 [1]; 1 mM acetyl-CoA) read?
Answer: Its Km is 444 ± 44.4 µM.

Question: What about the Km (PcIBMS1 [2]; 1 mM acetyl-CoA) of the same molecule?
Answer: The Km was 1300 ± 128 µM.

Question: What about the Km (PcIPMS1 [3]; 1 mM acetyl-CoA) of the same molecule?
Answer: The Km was 622 ± 58.3 µM.

Question: What about the Km (PcIPMS1 [4]; 1 mM acetyl-CoA) of the same molecule?
Answer: The Km was 288 ± 8.2 µM.

Question: Which results are given for `CC(C)CC(=O)C(=O)O` [4-methyl-2-oxovalerate]?
Answer: Km (PcIBMS1 [1]; 1 mM acetyl-CoA): 95 ± 17.9 µM; Km (PcIBMS1 [2]; 1 mM acetyl-CoA): 140 ± 39.4 µM

Question: `CC(=O)SCCNC(=O)CCNC(=O)[C@H](O)C(C)(C)COP(=O)(O)OP(=O)(O)OC[C@H]1O[C@@H](n2cnc3c(N)ncnc32)[C@H](O)[C@@H]1OP(=O)(O)O` [acetyl-CoA] was tested. Which Km (PcIBMS1 [1]; 2 mM 4-methyl-2-oxovalerate) did it give?
Answer: Its Km is 132 ± 6.5 µM.

Question: And the Km (PcIBMS1 [2]; 2 mM 4-methyl-2-oxovalerate)?
Answer: The Km was 145 ± 21.2 µM.

Question: What about the Km (PcIPMS1 [3]; 2 mM 2-oxoisovalerate) of the same molecule?
Answer: Its Km is 22.7 ± 1.9 µM.

Question: What about the Km (PcIPMS1 [4]; 2 mM 2-oxoisovalerate) of the same molecule?
Answer: Its Km is 48.1 ± 2.8 µM.
